Assay results reported in publication PMC6017357, “In Vitro Inhibitory Effects of Synthetic Cannabinoid EAM-2201 on Cytochrome P450 and UDP-Glucuronosyltransferase Enzyme Activities in Human Liver Microsomes” (Molecules : A Journal of Synthetic Chemistry and Natural …, 2018).

Tests used:
CYP3A4 = CYP3A4 (Homo sapiens, UniProt P08684); assay: CYP3A4-mediated midazolam 1′-hydroxylation in human liver microsomes (IC50 and time-dependent inhibition); assay type: in vitro ADME; parameters: from tissue; host or cells: ultrapooled human liver microsomes
Method: (§1) The inhibitory potential (IC50 values) of EAM-2201 on CYP1A2, CYP2A6, CYP2C8, CYP2C9, CYP2C19, CYP2D6 and CYP3A4 were evaluated using ultrapooled human liver microsomes and a cocktail of seven CYP substrates followed by LC-tandem mass spectrometry (LC-MS/MS) as previously described. Each incubation mixture was prepared in a total volume of 100 µL as follows: pooled human liver microsomes (5.2 pmol CYP), 1.0 mM NADPH, 10 mM magnesium chloride, 50 mM potassium phosphate buffer (pH 7.4), various concentrations of EAM-2201 in DMSO (final concentrations of 0.1–50 µM, 0.5% DMSO) and a cocktail of seven CYP probe substrates in 50% acetonitrile (0.5% acetonitrile), including 50 µM phenacetin, 2.5 µM coumarin, 2.0 µM amodiaquine, 10 µM diclofenac, 100 µM [S]-mephenytoin, 5 µM bufuralol and 2.5 µM midazolam in 50% acetonitrile. After a 3-min preincubation at 37 °C, the reactions were initiated by adding NADPH and incubation proceeded for 15 min at 37 °C in a shaking water bath. The reactions were stopped by adding 100 µL of ice-cold methanol containing internal standards (^13C2,^15N-acetaminophen for acetaminophen and N-desethylamodiaquine; d9-1′-hydroxybufuralol for 4′-hydroxydiclofenac, 7-hydroxycoumarin, 4′-hydroxymephenytoin, 1′-hydroxybufuralol and 1′-hydroxy-midazolam). The incubation mixtures were centrifuged at 13,000× g for 4 min at 4 °C and 50 µL of each supernatant was diluted in 50 µL of water. Aliquots (5 µL) of the diluted supernatants were analyzed using LC-MS/MS. All assays were performed in triplicate and the mean values were used in calculations. […] Each reaction was initiated by adding the seven-CYP probe substrate cocktail described above.
(§2) The time-dependent inhibitory effects of EAM-2201 on CYP2C8, CYP2C9, CYP2C19 and CYP3A4 activities in ultrapooled human liver microsomes were evaluated using time- and concentration-dependent inhibition assays. Ultrapooled human liver microsomes (26.0 pmol CYP) were pre-incubated with various concentrations of EAM-2201 in DMSO (0.5% DMSO) in 50 mM potassium phosphate buffer (pH 7.4) in the presence of NADPH for predetermined time periods: 5–15 min for CYP2C8 activity, 5–20 min for CYP2C9 activity and 15–40 min for CYP2C19 and CYP3A4 activities. […] Aliquots (5 µL) of the diluted supernatants were analyzed using LC-MS/MS.
(§3) The metabolites formed from CYP substrates were simultaneously quantified using our previously described LC-MS/MS method. […]

CYP2C8 = target: T1, CYP2C8 (Homo sapiens, UniProt P10632); assay: CYP2C8-catalyzed amodiaquine N-deethylation in human liver microsomes (IC50 and time-dependent inhibition); assay type: in vitro ADME; parameters: from tissue; host or cells: ultrapooled human liver microsomes
T1 sequence (P10632 1-490): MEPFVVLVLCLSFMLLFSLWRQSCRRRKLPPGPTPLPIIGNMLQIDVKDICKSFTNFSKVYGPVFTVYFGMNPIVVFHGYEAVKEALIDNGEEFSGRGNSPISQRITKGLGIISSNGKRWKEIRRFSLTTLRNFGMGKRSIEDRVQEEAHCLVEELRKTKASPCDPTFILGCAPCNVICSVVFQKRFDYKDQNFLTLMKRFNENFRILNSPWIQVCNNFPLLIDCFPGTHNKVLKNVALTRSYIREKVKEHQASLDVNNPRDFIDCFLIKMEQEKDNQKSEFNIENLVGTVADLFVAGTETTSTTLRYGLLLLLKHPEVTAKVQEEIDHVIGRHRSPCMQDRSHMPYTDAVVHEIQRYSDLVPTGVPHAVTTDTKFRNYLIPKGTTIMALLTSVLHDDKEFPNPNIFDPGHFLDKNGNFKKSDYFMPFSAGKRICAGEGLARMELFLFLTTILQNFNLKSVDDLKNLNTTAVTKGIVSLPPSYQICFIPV
Method: as §1, §2, §3

[1] = up to 50 µM, without 30-min preincubation, human liver microsomes

Sequence of CYP3A4 (P08684 whole entry): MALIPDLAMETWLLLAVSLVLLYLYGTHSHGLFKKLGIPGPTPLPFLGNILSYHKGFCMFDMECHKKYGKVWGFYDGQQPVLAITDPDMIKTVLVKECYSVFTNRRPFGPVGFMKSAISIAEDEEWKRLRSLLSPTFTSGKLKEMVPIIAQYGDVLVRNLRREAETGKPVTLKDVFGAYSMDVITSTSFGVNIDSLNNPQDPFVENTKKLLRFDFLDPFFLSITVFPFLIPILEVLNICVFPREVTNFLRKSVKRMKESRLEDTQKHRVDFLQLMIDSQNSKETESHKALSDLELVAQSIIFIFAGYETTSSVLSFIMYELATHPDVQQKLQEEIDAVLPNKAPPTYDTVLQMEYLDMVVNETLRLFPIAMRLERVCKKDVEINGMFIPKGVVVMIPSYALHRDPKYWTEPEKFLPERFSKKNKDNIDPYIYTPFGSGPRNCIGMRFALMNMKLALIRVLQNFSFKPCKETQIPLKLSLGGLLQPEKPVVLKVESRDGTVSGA

Q: For CCc1ccc(C(=O)c2cn(CCCCCF)c3ccccc23)c2ccccc12 [EAM-2201, (4-ethyl-1-naphthalenyl)[1-(5-fluoropentyl)-1H-indol-3-yl]-methanone], which IC50 (CYP3A4) is on record?
A: 17.6 µM

Q: And the “kinact/Ki value for CYP3A4” value (CYP3A4; human liver microsomes)?
A: 102 M⁻¹ s⁻¹

Q: And the kinact (CYP3A4; human, ultrapooled human liver microsomes, pH 7.4, probe midazolam (2 µM), 1′-hydroxylation, read-out: kinact, time-dependent inhibition of CYP3A4 midazolam 1′-hydroxylase (converted))?
A: 0.000417 s⁻¹

Q: What about the “inhibition of CYP3A4-mediated midazolam 1′-hydroxylation” value (CYP3A4; [1]) of the same compound?
A: negligibly inhibited

Q: And the IC50 (CYP2C8)?
A: 3 µM

Q: What about the “inactivation efficiency (kinact/Ki), CYP2C8” value (CYP2C8; human liver microsomes) of the same compound?
A: 1953 M⁻¹ s⁻¹

Q: What about the kinact (CYP2C8; human, ultrapooled human liver microsomes, pH 7.4, probe amodiaquine (2 µM), N-deethylation, read-out: kinact, time-dependent inhibition of CYP2C8 amodiaquine N-deethylase (converted)) of the same compound?
A: 0.00105 s⁻¹

Q: And the “inhibition of CYP2C8-catalyzed amodiaquine N-deethylation” value (CYP2C8; [1])?
A: negligibly inhibited
